Assay [1] relates to acromelic acid-induced allodynia. As to the kind of experiment: Evaluation of allodynia-inhibitory activity (intrathecal co-administration with acromelic acid). The format is in vivo, ddY-mouse. The following applies: for dose suppressing allodynia induction with equal potency, relative to the compounds of Comparative Examples 5 and 6: fraction of the doses of Comparative Examples 5 and 6, intrathecal with acromelic acid, ddY-mouse, FIG. 3; for allodynia-inhibitory activity: intrathecal, 5 μl solution with 1×10^−15 gram of acromelic acid plus pyrrolidine derivative, ddY-mouse male, allodynia scored 0 to 2 every 5 minutes for 50 minutes, percent of control, FIGS. 1-3. How it is done: In the evaluation, according to the method of Hylden & Wilcox (Hylden, J. L. K. and Wilcox, G. L., Intrathecal morphine in mice: a new technique, Eur. J. Pharmacol, 67 (1980) 313-316.), 5 μl of a solution containing 1×10^−15 gram of acromelic acid and a different dose of pyrrolidine derivative was administrated to ddY-mouse (male, weight 22±2 g) under an unanesthetized condition. One experimental group consisted of 6 mice, and a solution containing 1×10^−15 gram of acromelic acid (5 μl ) was administrated in control groups. After the compound was intrathecally administered, allodynia was assessed once every 5 minutes for 50 minutes by scoring the response in rank order from 0 to 2, and expressed as a percent of the values in control groups, similarly to the method of Yaksh & Harty et al. (Yaksh, T. L. and Harty, G. J., Pharmacology of the allodynia in rats evoked by high dose intrathecal morphine, J. Pharmacol. Exp. Ther., 244 (1988) 501-507.). Allodynic response was ranked as follows: 0, no response; 1, mild squeaking with attempts to move away from the stroking probe; 2, vigorous squeaking evoked by the stroking probe, biting at the probe or strong efforts to escape.

A further assay deals with allodynia. The settings on record: intrathecal administration in mice; Non-patent documents 1 and 4; cited from earlier work.

As to `Cc1ccc(O[C@@H]2CN[C@H](C(=O)O)[C@H]2CC(=O)O)c(C(=O)O)c1` [Example 8, (2S,3R,4S)-3-carboxymethyl-4-(2-carboxy-4-methyl-phenoxy)pyrrolidine-2-carboxylate], in assay [1], the “dose suppressing allodynia induction with equal potency, relative to the compounds of Comparative Examples 5 and 6” value is on record as “approximately one-hundredth”; the allodynia-inhibitory activity entry is recorded as “strong allodynia-inhibitory activity”.

For `Cc1ccc(S[C@H]2CN[C@H](C(=O)O)C2)cc1` [Example 19, (2S,4R)-4-(4-methylphenylthio)pyrrolidine-2-carboxylate], in assay [1], the “dose suppressing allodynia induction with equal potency, relative to the compounds of Comparative Examples 5 and 6” value was “approximately one-hundredth”; the allodynia-inhibitory activity result is “strong allodynia-inhibitory activity”.

For `Cc1ccc(S[C@H]2CN[C@H](C(=O)O)[C@H]2CC(=O)O)cc1` [Example 14, (2S,3R,4R)-3-(carboxymethyl)-4-(4-methylphenylthio)-pyrrolidine-2-carboxylate], in assay [1], the “dose suppressing allodynia induction with equal potency, relative to the compounds of Comparative Examples 5 and 6” value was “approximately one-hundredth”; the allodynia-inhibitory activity result is recorded as “strong allodynia-inhibitory activity”.

Turning to acromelic acids, in the assay with allodynia, the allodynia-inducing activity result is reported as “induce severe allodynia”.

`[N-]=[N+]=Nc1ccc(O[C@H]2CN[C@H](C(=O)O)[C@H]2CC(=O)O)c(I)c1` [proline analogue (a)]: the allodynia-inducing activity entry with allodynia is given as “the same degree of allodynia-inducing activity as that of acromelic acids”.

Consider `O=C(O)C[C@H]1[C@@H](Sc2ccccc2)CN[C@@H]1C(=O)O` [Example 18, (2S,3R,4R)-3-carboxy-methyl-4-phenylthiopyrrolidine-2-carboxylate], for which, in assay [1], the allodynia-inhibitory activity result is reported as “strong allodynia-inhibitory activity”.

Take `O=C(O)c1ccc(O[C@@H]2CN[C@H](C(=O)O)C2)cc1` [Example 9, (2S,4S)-4-(4-carboxyphenoxy)pyrrolidine-2-carboxylate]: the allodynia-inhibitory activity result in assay [1] was “strong allodynia-inhibitory activity”.

On to `COc1ccc(S[C@H]2CN[C@H](C(=O)O)[C@H]2CC(=O)O)cc1` [Example 13, (2S,3R,4R)-3-(carboxymethyl)-4-(4-methoxyphenylthio)-pyrrolidine-2-carboxylate], for which the allodynia-inhibitory activity entry in assay [1] was “strong allodynia-inhibitory activity”.

Turning to `O=C(O)C[C@@H]1[C@@H](C(=O)O)NC[C@H]1Oc1ccccc1C(=O)O` [Example 5, (2S,3R,4S)-3-(carboxymethyl)-4-(2-carboxyphenoxy)-pyrrolidine-2-carboxylate], the allodynia-inhibitory activity entry in assay [1] was “strong allodynia-inhibitory activity”.

`O=C(O)C[C@@H]1[C@@H](C(=O)O)NC[C@H]1Oc1ccc(C(=O)O)cc1` [Example 1, (2S,3R,4S)-3-carboxymethyl-4-(4-carboxyphenoxy)-pyrrolidine-2-carboxylic acid]: in assay [1], the allodynia-inhibitory activity entry is given as “strong allodynia-inhibitory activity”.

The record behind these values is patent publication US7968733B2, “Pyrrolidine analogue for preventing neurogenic pain and method for production thereof” (priority 2006, dated 2011).
